Source: patent US11344510B2, “Arylcyclohexylamine derivatives and their use in the treatment of psychiatric disorders” (Gilgamesh Pharmaceuticals, Inc., priority 2019, dated 2022)
“Also recorded” adds a separate entry of the source.

Legend:
[1] = test system: CSDS-susceptible mice; assay: Behavioral tests after chronic social defeat stress (CSDS); type: in vivo, C57BL/6 mice
[2] = biological target: T1, norepinephrine transporter (NET) (Homo sapiens, UniProt P23975); assay: Fluorescent substrate uptake inhibition, NET; type: cell-based; settings: 10 μM, HEK293 cells expressing NET
T1 construct: expressed in transfected cells; host or cells: HEK293

[3] = biological target: T2, serotonin transporter (SERT) (Homo sapiens, UniProt P31645); assay: Fluorescent substrate uptake inhibition, SERT; type: cell-based; settings: for inhibition at 10 µM: HEK293 cells expressing SERT
T2 construct: expressed in transfected cells; host or cells: HEK293

[4] = RLM stability (Low Activity); type: in vitro ADME, Sprague Dawley rats; settings: male, Sprague Dawley, rat, liver microsomes, pH 7.4, Condition 1 (Low Activity), 0.50 mg protein/mL
Protocol: (§1) RLM Stability (Low Activity). Pooled RLM from male Sprague Dawley rats (XenoTech R1000) were used. Microsomal incubations were carried out in multi-well plates. Liver microsomal incubation medium consisted of PBS (100 mM, pH 7.4), MgCl2 (1 mM), and NADPH (1 mM), with 0.50 mg of liver microsomal protein per mL. Control incubations were performed by replacing the NADPH-cofactor system with PBS. Test compounds (1 μM, final solvent concentration 1.0%) were incubated with microsomes at 37° C. with constant shaking. Six time points over 60 minutes were analyzed, with 60 μL aliquots of the reaction mixture being drawn at each time point. The reaction aliquots were stopped by adding 180 μL of cold (4° C.) acetonitrile containing 200 ng/mL tolbutamide and 200 ng/mL labetalol as internal standards (IS), followed by shaking for 10 minutes, and then protein sedimentation by centrifugation at 4000 rpm for 20 minutes at 4° C. Supernatant samples (80 μL) were diluted with water (240 μL) and analyzed for parent compound remaining using a fit-for-purpose liquid chromatography-tandem mass spectrometry (LC-MS/MS) method.
(§2) Data Analysis. The elimination constant (kel), half-life (t1/2) and intrinsic clearance (Clint) were determined in a plot of […] versus time, using linear regression analysis.

[5] = MLM stability (Low Activity); type: in vitro ADME, CD-1 mice; settings: male, CD-1, mouse, liver microsomes, pH 7.4, Condition 1 (Low Activity), 0.50 mg protein/mL
Protocol: as §1, with “MLM” for “RLM”, “CD-1 mice” for “Sprague Dawley rats”, “M1000)” for “R1000)”
as §2

[6] = biological target: T3, vesicular monoamine transporter 2 (VMAT2) (Homo sapiens, UniProt Q05940); assay: Fluorescent substrate uptake inhibition, VMAT2; type: cell-based; settings: 10 μM, transfected cells
T3 construct: expressed in transfected cells

[7] = biological target: MK-801 binding site of the N-methyl-D-aspartate receptor (NMDAR); assay: NMDAR radioligand binding with [3H]MK-801, Method B; parameters: species or system Sprague Dawley rat; settings: MK-801 site, Method B, male Sprague Dawley rat cortex, 5.0 nM [3H]MK-801; read-out: NMDAR Ki ± SEM
Protocol: Radioligand Binding—Method B. Affinity of the test compounds for NMDAR was determined in radioligand binding experiments with [^3H]MK-801 by WuXi AppTec (Hong Kong) Limited, under the conditions described in Table 13.

[8] = biological target: T4, dopamine transporter (DAT) (Homo sapiens, UniProt Q01959); assay: Fluorescent substrate uptake inhibition, DAT; type: cell-based; settings: 10 μM, CHO cells expressing DAT
T4 construct: expressed in transfected cells; host or cells: CHO (uptake)

[9] = biological target: T5, SERT (Homo sapiens, UniProt P31645); assay: SERT radioligand binding with [3H]imipramine
T5 construct: expressed in transfected cells; host or cells: HEK293
Protocol: Radioligand Binding. Affinity of the test compounds for SERT, NET, and DAT was determined in radioligand binding experiments with [^3H]imipramine, [^3]nisoxetine, and [^3H]WIN35,428, respectively, by WuXi AppTec (Hong Kong) Limited, under the conditions described in Table 15.

[10] = HLM stability (Low Activity, Alternative Method); type: in vitro ADME; settings: both sexes, human, liver microsomes, pH 7.4, Condition 1 column, values marked *: Low Activity, 0.50 mg protein/mL
Protocol: as §1, with “HLM” for “RLM”, “Activity, Alternative Method).” for “Activity).”, “from adult” for “from”, “and female donors (Corning 452117)” for “Sprague Dawley rats (XenoTech R1000)”
as §2

[11] = biological target: MK-801 binding site of the N-methyl-D-aspartate receptor (NMDAR); assay: NMDAR radioligand binding with [3H]MK-801, Method A; parameters: species or system Wistar rat; settings: for Ki: MK-801 site, Method A, Wistar rat brain (minus cerebellum), 5.0 nM [3H]MK-801, read-out: NMDAR Ki ± SEM
Protocol: Radioligand Binding—Method A. Affinity of the test compounds for NMDAR was determined in radioligand binding experiments with [^3H]MK-801 by Eurofins Panlabs, Inc., using methods adapted from the literature (Javitt et al. 1987; Reynolds et al. 1989) and under the conditions described in Table 12.

[12] = test system: monoamine transporters, MATs (SERT, NET, DAT, VMAT2); assay: Monoamine uptake inhibition, monoamine transporters collectively; type: cell-based; settings: in words
Protocol: The ability of the compounds of the present invention to inhibit uptake of monoamines by the serotonin transporter (SERT), norepinephrine transporter (NET), dopamine transporter (DAT), and vesicular monoamine transporter 2 (VMAT2) (collectively monoamine transporters, MATs) was measured using fluorescent substrate uptake assays in transfected cells (Table 14). The binding affinities of select compounds were also determined in radioligand displacement assays at SERT, NET, and/or DAT (Table 14).
Uptake Inhibition. The ability of test compounds to block monoamine uptake by SERT, NET, DAT, and VMAT2 was determined using the Neurotransmitter Transporter Uptake Assay Kit manufactured by Molecular Devices (Cat #R8173). Briefly, stably transfected cells expressing the MAT of interest (HEK293 cells for SERT and NET; CHO cells for DAT) were grown and plated into 384-well plates at a concentration of 20,000 cells per well. Plates were then incubated for 16-20 h at 37° C. and 5% CO2. The medium was then aspirated and replaced with 25 μL of assay buffer (20 mM HEPES in HBSS, containing 0.1% BSA) containing the test compounds at the appropriate concentrations. Plates were then centrifuged at 300 rpm for 15 s and then incubated at 37° C. for 30 minutes. At this time, 25 μL of the proprietary fluorescent dye solution was added, the plates were incubated at 37° C. for 60 minutes, and then fluorescence was quantified on a plate reader (excitation wavelength=440 nm, emission wavelength=520 nm). The proprietary dye solution contains a mixture of 1) a fluorescent dye that mimics the endogenous substrates of MATs and is thereby actively transported to the intracellular compartment in the absence of an inhibitor and 2) a masking dye that inhibits the fluorescence of dye 1 in the extracellular compartment. Therefore, the overall fluorescence of the system increases as the fluorescent dye is transported into the cells.

[13] = 14.4 mg/kg i.p. as hydrogen tartrate salts

T2 sequence (P31645 whole entry, species assumed): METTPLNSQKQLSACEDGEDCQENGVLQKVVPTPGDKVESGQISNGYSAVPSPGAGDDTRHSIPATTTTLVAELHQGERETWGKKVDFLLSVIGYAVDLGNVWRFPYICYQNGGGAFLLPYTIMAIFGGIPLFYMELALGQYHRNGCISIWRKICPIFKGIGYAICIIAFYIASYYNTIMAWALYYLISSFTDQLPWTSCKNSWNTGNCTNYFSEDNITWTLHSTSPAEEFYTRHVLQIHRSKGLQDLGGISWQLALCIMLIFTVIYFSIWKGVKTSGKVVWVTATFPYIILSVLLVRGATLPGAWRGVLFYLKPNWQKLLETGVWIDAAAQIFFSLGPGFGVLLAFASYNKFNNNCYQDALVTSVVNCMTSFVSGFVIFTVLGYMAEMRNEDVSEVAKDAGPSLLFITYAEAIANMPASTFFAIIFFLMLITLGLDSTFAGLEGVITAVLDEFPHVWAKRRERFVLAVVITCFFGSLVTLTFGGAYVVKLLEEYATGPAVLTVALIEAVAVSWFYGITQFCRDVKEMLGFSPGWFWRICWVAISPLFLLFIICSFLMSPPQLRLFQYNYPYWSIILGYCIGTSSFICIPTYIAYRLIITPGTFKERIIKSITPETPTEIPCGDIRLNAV
T3 sequence (Q05940 whole entry, species assumed): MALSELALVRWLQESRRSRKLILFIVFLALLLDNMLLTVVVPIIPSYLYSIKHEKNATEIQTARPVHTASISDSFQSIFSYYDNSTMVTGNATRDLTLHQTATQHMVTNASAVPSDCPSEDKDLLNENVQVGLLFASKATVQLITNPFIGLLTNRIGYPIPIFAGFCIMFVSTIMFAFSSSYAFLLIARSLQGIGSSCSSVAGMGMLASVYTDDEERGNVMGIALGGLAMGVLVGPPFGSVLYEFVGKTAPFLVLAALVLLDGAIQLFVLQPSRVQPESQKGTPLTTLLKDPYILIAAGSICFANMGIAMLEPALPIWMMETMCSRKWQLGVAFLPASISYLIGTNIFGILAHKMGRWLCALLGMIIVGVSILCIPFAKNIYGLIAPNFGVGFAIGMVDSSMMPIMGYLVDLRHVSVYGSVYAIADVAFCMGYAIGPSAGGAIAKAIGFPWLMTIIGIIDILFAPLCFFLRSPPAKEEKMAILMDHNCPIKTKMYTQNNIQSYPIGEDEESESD
T1 sequence (P23975 whole entry, species assumed): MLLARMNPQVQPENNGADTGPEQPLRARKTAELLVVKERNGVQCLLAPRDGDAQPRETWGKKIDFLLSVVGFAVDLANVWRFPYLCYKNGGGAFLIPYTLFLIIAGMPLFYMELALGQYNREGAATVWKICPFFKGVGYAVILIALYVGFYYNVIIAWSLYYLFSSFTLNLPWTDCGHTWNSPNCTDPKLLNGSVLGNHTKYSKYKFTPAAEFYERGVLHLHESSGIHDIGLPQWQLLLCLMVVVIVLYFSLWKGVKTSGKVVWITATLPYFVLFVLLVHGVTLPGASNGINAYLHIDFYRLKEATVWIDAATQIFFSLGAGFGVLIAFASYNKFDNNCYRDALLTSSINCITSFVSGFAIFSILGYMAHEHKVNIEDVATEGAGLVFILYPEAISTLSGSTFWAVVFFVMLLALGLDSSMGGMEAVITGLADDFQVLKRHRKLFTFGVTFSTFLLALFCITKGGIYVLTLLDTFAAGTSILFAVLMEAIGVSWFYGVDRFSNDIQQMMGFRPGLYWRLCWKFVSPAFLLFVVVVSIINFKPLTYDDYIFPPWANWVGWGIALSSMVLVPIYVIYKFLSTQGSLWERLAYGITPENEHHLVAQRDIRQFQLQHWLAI
T4 sequence (Q01959 whole entry, species assumed): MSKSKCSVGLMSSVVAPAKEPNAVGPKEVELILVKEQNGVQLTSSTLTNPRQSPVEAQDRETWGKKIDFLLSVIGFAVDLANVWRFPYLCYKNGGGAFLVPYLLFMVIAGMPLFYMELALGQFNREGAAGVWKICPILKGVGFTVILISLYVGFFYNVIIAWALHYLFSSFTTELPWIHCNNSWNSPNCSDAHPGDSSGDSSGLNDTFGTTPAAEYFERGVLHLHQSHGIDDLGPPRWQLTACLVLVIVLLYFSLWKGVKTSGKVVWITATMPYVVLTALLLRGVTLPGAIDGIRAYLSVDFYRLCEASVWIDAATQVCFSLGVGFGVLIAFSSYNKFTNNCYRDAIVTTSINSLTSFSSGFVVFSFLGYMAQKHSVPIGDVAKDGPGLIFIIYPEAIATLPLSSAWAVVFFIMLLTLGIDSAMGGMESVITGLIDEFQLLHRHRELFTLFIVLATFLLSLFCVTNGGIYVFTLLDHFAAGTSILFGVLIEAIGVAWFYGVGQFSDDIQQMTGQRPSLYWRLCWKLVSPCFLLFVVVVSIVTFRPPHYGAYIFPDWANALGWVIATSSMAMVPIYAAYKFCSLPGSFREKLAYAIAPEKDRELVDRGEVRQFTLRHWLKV
T5 sequence (P31645 whole entry, species assumed): as the sequence (P31645 whole entry, species assumed) above

Row | Compound | antidepressant-like activity in behavioral tests after CSDS (TST, FST, SPT) ([1]; 10 mg/kg i.p., single dose) | inhibition at 10 µM [2] | inhibition at 10 µM [3] | microsomal CLint at 1 μM [4] | microsomal CLint at 1 μM [5] | inhibition at 10 µM [6] | Ki [7] | inhibition at 10 µM [8] | half-life at 1 μM [10] | microsomal CLint at 1 μM [10] | antidepressant-like activity in behavioral tests after CSDS (TST, FST, SPT) [1, 13] | Ki [11] | other results
1 | CNC1(c2ccccc2Cl)CCCCC1=O (racemic) [racemic ketamine, reference compound] | effective |  |  |  |  |  |  |  |  |  |  |  | 
2 | CNC1(c2ccccc2I)CCCCC1=O (racemic) [Compound 37rac, 2-(2-Iodophenyl)-2-(methylamino)cyclohexan-1-one] | not effective |  |  |  |  |  |  |  |  |  |  |  | antidepressant-like activity in behavioral tests after CSDS (TST, FST, SPT) ([1]; 30 mg/kg i.p., single dose): only partially effective
3 | CC(C)N[C@@]1(c2ccccc2)CCCCC1=O [Compound 28R, (R)-2-(isopropylamino)-2-phenylcyclohexan-1-one] |  | 11.4% | 37.2% | 52.6 µL/min/mg | 123 µL/min/mg | -11.4% | > 23 µM | 16.5% | 69.4 min | 20 µL/min/mg |  |  | IC50 [3]: 7.3 µM; half-life at 1 μM [4]: 26.3 min; half-life at 1 μM [5]: 11.3 min; Ki [9]: 8.6 µM
4 | CN[C@]1(c2ccccc2F)CCCCC1=O [Compound 35S, (S)-2-(2-Fluorophenyl)-2-(methylamino)cyclohexan-1-one] |  |  |  |  |  |  |  |  |  |  | induced antidepressant-like effects | 0.79 ± 0.21 µM | 
5 | CN[C@@]1(c2ccccc2F)CCCCC1=O [Compound 35R, (R)-2-(2-Fluorophenyl)-2-(methylamino)cyclohexan-1-one] |  |  |  |  |  |  |  |  |  |  | induced antidepressant-like effects; also recorded: more robust and longer lasting | 3.91 ± 0.4 µM | NMDAR binding, comparison in words ([11]; vs 35S, 35rac, racemic ketamine and R-ketamine): weaker NMDAR binding
6 | CNC1(c2ccc(F)cc2)CCCCC1=O (racemic) [Compound 18rac, 2-(4-fluorophenyl)-2-(methylamino)cyclohexan-1-one] |  | 16% | 25.2% | 19.6 µL/min/mg | 13.7 µL/min/mg | 20.2% | 4.5 µM | 21.4% | > 145 min | < 9.6 µL/min/mg |  |  | selectivity for NMDAR (over MATs) [12]: greater selectivity for NMDAR
